The source of these data is patent US20120225817A1, “THERAPEUTIC AGENT FOR GASTROINTESTINAL DISEASE” (Santen Pharmaceutical Co., Ltd., priority 2009, published 2012).

Residues, ends and D or L forms follow the SMILES beside them.

For the data set, the system named is Caco-2 cells. Kind of data set: Effect on migration of gastrointestinal mucosal tissue cells (cut in a confluent Caco-2 cell layer, cell spreading area). It is filed as cell-based, human. Conditions: for Migration of Caco-2 cells (%): 18 hours, control = 100%, mean ± standard error, 8 samples. How it is done: An effect on cell migration was studied by the following method using Caco-2 cells which are a human colon cancer cell line.
In a 24-well plate coated with type IV collagen, Caco-2 cells were seeded at […] cells per well and cultured to confluence in a DMEM medium containing 10% FBS. A cut was formed in the cell layer using a razor blade, and a cell-free region was created with a cotton swab. After washing with a DMEM medium containing 1% FBS, the cells were cultured for 18 hours in the same medium containing each test compound under conditions of 37° C. and 5% CO2. The effect on the migration of Caco-2 cells was studied by taking pictures before adding the test compound and at 18 hours after the addition of the test compound and comparing cell spreading areas in a fixed region at 18 hours after the addition of the test compounds. Further, Caco-2 cells cultured in the same manner in the medium without containing the test compound were used as a control.
The results of the case where a single agent of SSSR was used are shown in Table 1, and the results of the case where SSSR and FGLM-NH2 were used in combination are shown in Table 2. In the tables, the migration of the Caco-2 cells is expressed as a mean and standard error calculated from the results of 8 samples for each test compound by taking the migration of the control cells as a standard (100%). Incidentally, the symbol “★★” indicates a statistical significance at a P value of <0.001 compared to the control.

Consider `CSCC[C@H](NC(=O)[C@H](CC(C)C)NC(=O)CNC(=O)[C@@H](N)Cc1ccccc1)C(N)=O` [FGLM-NH2, Phe-Gly-Leu-Met-NH2] (H-FGLM-NH2; N-terminus assumed), for which the “Migration of Caco-2 cells (%)” value (FGLM-NH2 20 μM) came out at 105.9 ± 3.9%. Further, the “Effect on migration of Caco-2 cells (in words)” value (“Effect on migration” below) (single agent, FGLM-NH2 trifluoroacetate at 20 μM) was “does not promote the migration of Caco-2 cells”.

Consider `N=C(N)NCCC[C@H](NC(=O)[C@H](CO)NC(=O)[C@H](CO)NC(=O)[C@@H](N)CO)C(=O)O` [SSSR, Ser-Ser-Ser-Arg] (H-SSSR-OH; N-terminus and C-terminus assumed), for which the “Migration of Caco-2 cells (%)” value (SSSR 10 nM) was 109.7 ± 5.1% and the “Migration of Caco-2 cells (%)” value (SSSR 30 μM) was 125.0 ± 2.0 %. The “Effect on migration” value (SSSR trifluoroacetate at 30 μM) is “promotes the migration of Caco-2 cells” and the “Effect on migration” value (single agent, SSSR trifluoroacetate at 10 nM) was “does not promote the migration of Caco-2 cells”.
